Source: the kinase profiling compilation of Christmann-Franck et al. (2016)

Columns and labels:
Test in all cases: KINOMEscan competition binding
Conditions in all cases: compound 10.0 µM
BRAF (human) = BRAF (human) (UniProt P15056)
BTK (human) = BTK (human) (UniProt Q06187)
CASK (human) = CASK (human) (UniProt O14936)
CDK4 CCND3 (human) = CDK4 CCND3 (human) (UniProt P11802+P30281)
CRK2 (P.falciparum) = CRK2 (P.falciparum) (UniProt P61075)
DDR1 (human) = DDR1 (human) (UniProt Q08345)
DSTYK (human) = DSTYK (human) (UniProt Q6XUX3)
DYRK1A (human) = DYRK1A (human) (UniProt Q13627)
EGFR (human) = EGFR (human) (UniProt P00533)
[1] = tested on: EGFR (human), P00533 [746-750 del]
[2] = tested on: EGFR (human), P00533 [L861Q]
[3] = tested on: FLT3 (human), P36888 [K663Q]
GRK7 (human) = GRK7 (human) (UniProt Q8WTQ7)
HIPK3 (human) = HIPK3 (human) (UniProt Q9H422)
KIT (human) = KIT (human) (UniProt P10721)
MAP2K5 (human) = MAP2K5 (human) (UniProt Q13163)
MAP3K1 (human) = MAP3K1 (human) (UniProt Q13233)
MAP3K2 (human) = MAP3K2 (human) (UniProt Q9Y2U5)
MAP3K6 (human) = MAP3K6 (human) (UniProt O95382)
MAST1 (human) = MAST1 (human) (UniProt Q9Y2H9)
MYLK3 (human) = MYLK3 (human) (UniProt Q32MK0)
NEK11 (human) = NEK11 (human) (UniProt Q8NG66)
NIM1 (human) = NIM1 (human) (UniProt Q8IY84)
OXSR1 (human) = OXSR1 (human) (UniProt O95747)
[4] = tested on: PIK3CA (human), P42336 [I800L]
PIP5K1C (human) = PIP5K1C (human) (UniProt O60331)
PRKCI (human) = PRKCI (human) (UniProt P41743)
PRPF4B (human) = PRPF4B (human) (UniProt Q13523)
SBK1 (human) = SBK1 (human) (UniProt Q52WX2)
SGK3 (human) = SGK3 (human) (UniProt Q96BR1)
SIK3 (human) = SIK3 (human) (UniProt Q9Y2K2)
STK38 (human) = STK38 (human) (UniProt Q15208)
STK39 (human) = STK39 (human) (UniProt Q9UEW8)
TAOK2 (human) = TAOK2 (human) (UniProt Q9UL54)
MTOR (human) = MTOR (human) (UniProt P42345)
PI4KB (human) = PI4KB (human) (UniProt Q9UBF8)
PIK3CA (human) = PIK3CA (human) (UniProt P42336)
[5] = tested on: PIK3CA (human), P42336 [E545A]
[6] = tested on: PIK3CA (human), P42336 [H1047Y]
[7] = tested on: PIK3CA (human), P42336 [Q546K]

OXSR1 (human), sequence (O95747 whole entry, looked up): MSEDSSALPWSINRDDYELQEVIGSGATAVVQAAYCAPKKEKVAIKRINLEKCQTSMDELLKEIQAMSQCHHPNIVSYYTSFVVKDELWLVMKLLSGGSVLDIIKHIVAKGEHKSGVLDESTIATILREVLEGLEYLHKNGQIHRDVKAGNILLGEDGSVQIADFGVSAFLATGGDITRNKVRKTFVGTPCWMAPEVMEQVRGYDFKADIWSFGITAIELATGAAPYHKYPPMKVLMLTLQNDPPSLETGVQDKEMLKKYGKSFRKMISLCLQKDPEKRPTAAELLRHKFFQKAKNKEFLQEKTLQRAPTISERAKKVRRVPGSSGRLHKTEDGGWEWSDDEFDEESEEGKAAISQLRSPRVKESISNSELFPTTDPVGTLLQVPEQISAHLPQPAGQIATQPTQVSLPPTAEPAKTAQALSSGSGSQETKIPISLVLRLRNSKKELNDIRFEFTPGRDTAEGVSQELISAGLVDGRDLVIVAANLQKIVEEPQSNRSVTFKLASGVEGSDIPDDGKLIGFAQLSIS
PRKCI (human), sequence (P41743 whole entry, looked up): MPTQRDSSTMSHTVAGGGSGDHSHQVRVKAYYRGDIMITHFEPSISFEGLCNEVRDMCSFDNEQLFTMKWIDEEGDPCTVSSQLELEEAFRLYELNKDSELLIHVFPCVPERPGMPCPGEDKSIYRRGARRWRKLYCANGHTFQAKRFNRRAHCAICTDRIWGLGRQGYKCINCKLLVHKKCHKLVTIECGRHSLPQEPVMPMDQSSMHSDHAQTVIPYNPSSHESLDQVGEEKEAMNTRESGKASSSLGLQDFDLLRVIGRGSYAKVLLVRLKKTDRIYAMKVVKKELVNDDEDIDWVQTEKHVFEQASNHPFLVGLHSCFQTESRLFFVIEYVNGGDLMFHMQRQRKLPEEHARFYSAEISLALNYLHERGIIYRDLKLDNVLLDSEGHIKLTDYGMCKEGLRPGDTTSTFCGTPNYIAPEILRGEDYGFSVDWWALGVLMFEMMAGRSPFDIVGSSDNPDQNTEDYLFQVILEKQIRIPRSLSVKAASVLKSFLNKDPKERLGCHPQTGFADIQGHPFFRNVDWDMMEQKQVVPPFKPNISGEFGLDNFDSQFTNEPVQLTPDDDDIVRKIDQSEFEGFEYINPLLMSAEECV
CASK (human), sequence (O14936 whole entry, looked up): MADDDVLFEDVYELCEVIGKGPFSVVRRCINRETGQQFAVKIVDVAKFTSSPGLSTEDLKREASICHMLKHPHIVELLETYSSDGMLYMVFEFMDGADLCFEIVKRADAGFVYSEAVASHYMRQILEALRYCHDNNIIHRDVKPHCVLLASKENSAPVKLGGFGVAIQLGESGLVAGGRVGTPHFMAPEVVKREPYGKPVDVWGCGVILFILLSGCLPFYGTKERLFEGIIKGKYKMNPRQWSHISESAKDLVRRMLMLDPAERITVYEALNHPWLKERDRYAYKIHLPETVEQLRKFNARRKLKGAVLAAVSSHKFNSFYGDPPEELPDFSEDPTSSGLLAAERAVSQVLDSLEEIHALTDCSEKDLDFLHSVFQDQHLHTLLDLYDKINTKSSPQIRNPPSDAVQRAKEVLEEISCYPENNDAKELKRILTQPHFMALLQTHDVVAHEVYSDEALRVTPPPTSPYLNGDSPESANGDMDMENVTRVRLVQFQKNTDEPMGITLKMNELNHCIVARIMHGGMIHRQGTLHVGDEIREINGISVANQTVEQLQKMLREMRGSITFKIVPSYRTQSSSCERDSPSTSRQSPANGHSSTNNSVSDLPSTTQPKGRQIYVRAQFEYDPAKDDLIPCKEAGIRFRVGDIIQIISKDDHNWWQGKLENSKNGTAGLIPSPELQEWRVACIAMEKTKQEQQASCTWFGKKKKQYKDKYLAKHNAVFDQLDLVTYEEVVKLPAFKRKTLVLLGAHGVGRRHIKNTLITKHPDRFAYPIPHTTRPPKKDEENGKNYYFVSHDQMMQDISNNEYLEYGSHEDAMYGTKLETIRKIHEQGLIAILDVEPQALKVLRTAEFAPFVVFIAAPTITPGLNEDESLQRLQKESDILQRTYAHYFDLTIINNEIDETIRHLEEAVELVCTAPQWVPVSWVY
SGK3 (human), sequence (Q96BR1 whole entry, looked up): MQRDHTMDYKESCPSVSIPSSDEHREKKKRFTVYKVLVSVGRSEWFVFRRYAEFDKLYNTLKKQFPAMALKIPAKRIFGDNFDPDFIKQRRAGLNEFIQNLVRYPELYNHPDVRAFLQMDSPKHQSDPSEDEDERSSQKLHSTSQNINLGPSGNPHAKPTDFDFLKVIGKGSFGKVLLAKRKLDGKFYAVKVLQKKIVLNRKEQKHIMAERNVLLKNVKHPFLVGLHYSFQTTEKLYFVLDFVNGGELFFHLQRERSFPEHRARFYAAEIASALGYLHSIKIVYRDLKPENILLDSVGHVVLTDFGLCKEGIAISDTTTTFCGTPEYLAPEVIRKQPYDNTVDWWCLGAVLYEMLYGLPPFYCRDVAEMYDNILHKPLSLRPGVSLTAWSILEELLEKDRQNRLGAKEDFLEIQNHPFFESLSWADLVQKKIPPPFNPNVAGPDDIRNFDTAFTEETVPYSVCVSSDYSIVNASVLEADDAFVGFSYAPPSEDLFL
MAP3K6 (human), sequence (O95382 whole entry, looked up): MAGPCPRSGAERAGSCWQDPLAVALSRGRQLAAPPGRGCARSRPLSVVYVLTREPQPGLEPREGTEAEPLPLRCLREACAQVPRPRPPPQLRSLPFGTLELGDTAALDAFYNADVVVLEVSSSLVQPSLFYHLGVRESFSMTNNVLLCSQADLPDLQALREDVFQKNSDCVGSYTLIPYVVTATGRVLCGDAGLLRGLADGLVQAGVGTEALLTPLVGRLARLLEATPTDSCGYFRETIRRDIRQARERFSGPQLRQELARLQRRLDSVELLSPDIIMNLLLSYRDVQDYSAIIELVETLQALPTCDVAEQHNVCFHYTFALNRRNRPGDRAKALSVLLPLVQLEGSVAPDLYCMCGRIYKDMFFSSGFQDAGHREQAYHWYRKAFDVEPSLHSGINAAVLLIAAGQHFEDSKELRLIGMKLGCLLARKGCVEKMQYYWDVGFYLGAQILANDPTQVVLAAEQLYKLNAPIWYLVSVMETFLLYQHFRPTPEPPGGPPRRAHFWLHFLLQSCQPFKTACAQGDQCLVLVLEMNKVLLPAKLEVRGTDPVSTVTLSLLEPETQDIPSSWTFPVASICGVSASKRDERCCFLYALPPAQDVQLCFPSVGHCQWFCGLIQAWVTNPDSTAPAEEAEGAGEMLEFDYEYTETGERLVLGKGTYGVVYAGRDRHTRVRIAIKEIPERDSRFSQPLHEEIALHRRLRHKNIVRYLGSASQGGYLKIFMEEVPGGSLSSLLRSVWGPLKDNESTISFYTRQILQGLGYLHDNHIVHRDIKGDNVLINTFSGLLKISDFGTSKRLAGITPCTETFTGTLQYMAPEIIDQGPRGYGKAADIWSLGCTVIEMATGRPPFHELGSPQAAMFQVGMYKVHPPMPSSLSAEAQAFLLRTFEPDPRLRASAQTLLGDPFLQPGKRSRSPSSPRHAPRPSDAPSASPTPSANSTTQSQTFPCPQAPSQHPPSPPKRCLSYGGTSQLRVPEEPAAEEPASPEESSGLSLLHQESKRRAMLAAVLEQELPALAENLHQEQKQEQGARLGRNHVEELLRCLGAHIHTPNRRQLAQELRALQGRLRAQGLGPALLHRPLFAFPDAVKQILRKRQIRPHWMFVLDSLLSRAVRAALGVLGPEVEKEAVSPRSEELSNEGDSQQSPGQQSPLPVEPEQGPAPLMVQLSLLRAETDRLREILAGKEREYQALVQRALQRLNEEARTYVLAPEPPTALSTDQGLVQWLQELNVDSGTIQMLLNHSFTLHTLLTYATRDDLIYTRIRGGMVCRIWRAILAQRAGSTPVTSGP
STK38 (human), sequence (Q15208 whole entry, looked up): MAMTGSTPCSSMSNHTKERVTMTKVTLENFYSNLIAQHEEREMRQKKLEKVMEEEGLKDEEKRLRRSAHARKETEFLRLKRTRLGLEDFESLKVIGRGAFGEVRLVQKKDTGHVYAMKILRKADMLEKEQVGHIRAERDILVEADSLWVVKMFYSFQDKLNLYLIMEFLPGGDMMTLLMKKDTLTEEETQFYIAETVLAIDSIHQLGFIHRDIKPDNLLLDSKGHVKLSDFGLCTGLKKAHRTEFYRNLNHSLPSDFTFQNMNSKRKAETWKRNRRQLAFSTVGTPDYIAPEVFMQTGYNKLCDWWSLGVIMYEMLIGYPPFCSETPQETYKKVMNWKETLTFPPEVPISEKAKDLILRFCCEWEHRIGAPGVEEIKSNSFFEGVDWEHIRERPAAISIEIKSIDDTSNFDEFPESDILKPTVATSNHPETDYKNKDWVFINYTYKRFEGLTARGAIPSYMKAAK
NEK11 (human), sequence (Q8NG66 whole entry, looked up): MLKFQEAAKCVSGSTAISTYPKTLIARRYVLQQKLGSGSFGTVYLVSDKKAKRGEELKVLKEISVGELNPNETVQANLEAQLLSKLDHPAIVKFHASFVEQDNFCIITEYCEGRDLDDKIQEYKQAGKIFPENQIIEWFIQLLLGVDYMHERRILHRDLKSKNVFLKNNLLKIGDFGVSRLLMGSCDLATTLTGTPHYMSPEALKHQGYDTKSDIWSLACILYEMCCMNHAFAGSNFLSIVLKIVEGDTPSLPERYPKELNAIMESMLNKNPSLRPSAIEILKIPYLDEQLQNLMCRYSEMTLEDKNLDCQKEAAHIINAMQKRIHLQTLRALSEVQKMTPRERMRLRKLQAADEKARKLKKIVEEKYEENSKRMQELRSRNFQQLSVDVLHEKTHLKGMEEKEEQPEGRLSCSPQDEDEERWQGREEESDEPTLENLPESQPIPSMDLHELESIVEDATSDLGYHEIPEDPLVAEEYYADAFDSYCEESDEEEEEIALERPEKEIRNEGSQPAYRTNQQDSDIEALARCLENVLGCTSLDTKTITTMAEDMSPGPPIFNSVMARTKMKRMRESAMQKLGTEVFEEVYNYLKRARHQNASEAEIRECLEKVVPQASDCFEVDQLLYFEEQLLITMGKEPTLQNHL

Nc1ccc(-c2ccc3ncc4ccc(=O)n(-c5cccc(C(F)(F)F)c5)c4c3c2)cn1
kinase still bound, per cent of control (BRAF (human)): 73% | kinase still bound, per cent of control (BTK (human)): 100% | kinase still bound, per cent of control (CASK (human)): 67% | kinase still bound, per cent of control (CDK4 CCND3 (human)): 90% | kinase still bound, per cent of control (CRK2 (P.falciparum)): 100% | kinase still bound, per cent of control (DDR1 (human)): 100% | kinase still bound, per cent of control (DSTYK (human)): 88% | kinase still bound, per cent of control (DYRK1A (human)): 75% | kinase still bound, per cent of control (EGFR (human)): 100% | kinase still bound, per cent of control [1]: 92% | kinase still bound, per cent of control [2]: 93% | kinase still bound, per cent of control [3]: 18% | kinase still bound, per cent of control (GRK7 (human)): 60% | kinase still bound, per cent of control (HIPK3 (human)): 92% | kinase still bound, per cent of control (KIT (human)): 55% | kinase still bound, per cent of control (MAP2K5 (human)): 84% | kinase still bound, per cent of control (MAP3K1 (human)): 100% | kinase still bound, per cent of control (MAP3K2 (human)): 78% | kinase still bound, per cent of control (MAP3K6 (human)): 100% | kinase still bound, per cent of control (MAST1 (human)): 100% | kinase still bound, per cent of control (MYLK3 (human)): 100% | kinase still bound, per cent of control (NEK11 (human)): 80% | kinase still bound, per cent of control (NIM1 (human)): 100% | kinase still bound, per cent of control (OXSR1 (human)): 100% | kinase still bound, per cent of control [4]: 0% | kinase still bound, per cent of control (PIP5K1C (human)): 51% | kinase still bound, per cent of control (PRKCI (human)): 100% | kinase still bound, per cent of control (PRPF4B (human)): 100% | kinase still bound, per cent of control (SBK1 (human)): 100% | kinase still bound, per cent of control (SGK3 (human)): 100% | kinase still bound, per cent of control (SIK3 (human)): 79% | kinase still bound, per cent of control (STK38 (human)): 100% | kinase still bound, per cent of control (STK39 (human)): 100% | kinase still bound, per cent of control (TAOK2 (human)): 92%

CCCS(=O)(=O)Nc1ccc(F)c(C(=O)c2c[nH]c3ncc(-c4ccc(Cl)cc4)cc23)c1F
kinase still bound, per cent of control (BRAF (human)): 0% | kinase still bound, per cent of control (BTK (human)): 93% | kinase still bound, per cent of control (CASK (human)): 80% | kinase still bound, per cent of control (CDK4 CCND3 (human)): 82% | kinase still bound, per cent of control (CRK2 (P.falciparum)): 97% | kinase still bound, per cent of control (DSTYK (human)): 22% | kinase still bound, per cent of control (DYRK1A (human)): 100% | kinase still bound, per cent of control (EGFR (human)): 70% | kinase still bound, per cent of control (GRK7 (human)): 93% | kinase still bound, per cent of control (HIPK3 (human)): 100% | kinase still bound, per cent of control (KIT (human)): 0.15% | kinase still bound, per cent of control (MAP2K5 (human)): 0.15% | kinase still bound, per cent of control (MAP3K1 (human)): 91% | kinase still bound, per cent of control (MAP3K2 (human)): 100% | kinase still bound, per cent of control (MAP3K6 (human)): 100% | kinase still bound, per cent of control (MAST1 (human)): 100% | kinase still bound, per cent of control (MTOR (human)): 100% | kinase still bound, per cent of control (NIM1 (human)): 100% | kinase still bound, per cent of control (OXSR1 (human)): 95% | kinase still bound, per cent of control (PI4KB (human)): 0.7% | kinase still bound, per cent of control (PIK3CA (human)): 94% | kinase still bound, per cent of control [5]: 95% | kinase still bound, per cent of control [6]: 88% | kinase still bound, per cent of control [4]: 93% | kinase still bound, per cent of control [7]: 86% | kinase still bound, per cent of control (PIP5K1C (human)): 44% | kinase still bound, per cent of control (PRKCI (human)): 100% | kinase still bound, per cent of control (PRPF4B (human)): 92% | kinase still bound, per cent of control (SBK1 (human)): 92% | kinase still bound, per cent of control (SGK3 (human)): 71% | kinase still bound, per cent of control (SIK3 (human)): 100% | kinase still bound, per cent of control (STK38 (human)): 100% | kinase still bound, per cent of control (STK39 (human)): 100% | kinase still bound, per cent of control (TAOK2 (human)): 53%

CCC(=O)N1CCN(c2ccc(-n3c(=O)ccc4cnc5ccc(-c6cnc7ccccc7c6)cc5c43)cc2C(F)(F)F)CC1
kinase still bound, per cent of control (BRAF (human)): 59% | kinase still bound, per cent of control (CASK (human)): 100% | kinase still bound, per cent of control (CDK4 CCND3 (human)): 87% | kinase still bound, per cent of control (CRK2 (P.falciparum)): 97% | kinase still bound, per cent of control (DDR1 (human)): 100% | kinase still bound, per cent of control (DSTYK (human)): 28% | kinase still bound, per cent of control (DYRK1A (human)): 71% | kinase still bound, per cent of control (EGFR (human)): 85% | kinase still bound, per cent of control [3]: 23% | kinase still bound, per cent of control (GRK7 (human)): 100% | kinase still bound, per cent of control (HIPK3 (human)): 86% | kinase still bound, per cent of control (MAP2K5 (human)): 100% | kinase still bound, per cent of control (MAP3K1 (human)): 92% | kinase still bound, per cent of control (MAP3K2 (human)): 62% | kinase still bound, per cent of control (MAP3K6 (human)): 100% | kinase still bound, per cent of control (MAST1 (human)): 93% | kinase still bound, per cent of control (MYLK3 (human)): 94% | kinase still bound, per cent of control (NEK11 (human)): 65% | kinase still bound, per cent of control (NIM1 (human)): 84% | kinase still bound, per cent of control (OXSR1 (human)): 100% | kinase still bound, per cent of control (PI4KB (human)): 96% | kinase still bound, per cent of control [5]: 1% | kinase still bound, per cent of control [4]: 0% | kinase still bound, per cent of control [7]: 6.8% | kinase still bound, per cent of control (PIP5K1C (human)): 80% | kinase still bound, per cent of control (PRKCI (human)): 85% | kinase still bound, per cent of control (PRPF4B (human)): 100% | kinase still bound, per cent of control (SBK1 (human)): 88% | kinase still bound, per cent of control (SGK3 (human)): 100% | kinase still bound, per cent of control (SIK3 (human)): 89% | kinase still bound, per cent of control (STK38 (human)): 100% | kinase still bound, per cent of control (STK39 (human)): 100% | kinase still bound, per cent of control (TAOK2 (human)): 84%

C[C@@H](Oc1cc(-n2cnc3ccc(CN4CCN(C)CC4)cc32)sc1C(N)=O)c1ccccc1C(F)(F)F
kinase still bound, per cent of control (BRAF (human)): 79% | kinase still bound, per cent of control (BTK (human)): 100% | kinase still bound, per cent of control (CASK (human)): 50% | kinase still bound, per cent of control (CDK4 CCND3 (human)): 70% | kinase still bound, per cent of control (CRK2 (P.falciparum)): 100% | kinase still bound, per cent of control (DDR1 (human)): 100% | kinase still bound, per cent of control (DSTYK (human)): 34% | kinase still bound, per cent of control (DYRK1A (human)): 100% | kinase still bound, per cent of control (EGFR (human)): 87% | kinase still bound, per cent of control [1]: 100% | kinase still bound, per cent of control [2]: 100% | kinase still bound, per cent of control [3]: 14% | kinase still bound, per cent of control (GRK7 (human)): 33% | kinase still bound, per cent of control (HIPK3 (human)): 37% | kinase still bound, per cent of control (KIT (human)): 47% | kinase still bound, per cent of control (MAP2K5 (human)): 43% | kinase still bound, per cent of control (MAP3K1 (human)): 3.7% | kinase still bound, per cent of control (MAP3K2 (human)): 100% | kinase still bound, per cent of control (MAP3K6 (human)): 75% | kinase still bound, per cent of control (MAST1 (human)): 3.1% | kinase still bound, per cent of control (MTOR (human)): 55% | kinase still bound, per cent of control (MYLK3 (human)): 100% | kinase still bound, per cent of control (NEK11 (human)): 100% | kinase still bound, per cent of control (NIM1 (human)): 30% | kinase still bound, per cent of control (OXSR1 (human)): 98% | kinase still bound, per cent of control (PI4KB (human)): 100% | kinase still bound, per cent of control (PIK3CA (human)): 52% | kinase still bound, per cent of control [5]: 40% | kinase still bound, per cent of control [6]: 32% | kinase still bound, per cent of control [4]: 24% | kinase still bound, per cent of control [7]: 29% | kinase still bound, per cent of control (PIP5K1C (human)): 18% | kinase still bound, per cent of control (PRPF4B (human)): 39% | kinase still bound, per cent of control (SBK1 (human)): 55% | kinase still bound, per cent of control (SGK3 (human)): 28% | kinase still bound, per cent of control (SIK3 (human)): 69% | kinase still bound, per cent of control (STK38 (human)): 71% | kinase still bound, per cent of control (STK39 (human)): 11% | kinase still bound, per cent of control (TAOK2 (human)): 94%
